Laboratory results reported in ChEMBL document CHEMBL3507680, “University of Dundee, Gates Library screen for HepG2 cell viability”.

Assay: Human HepG2 cell viability assay in 384 well format
Type: toxicity, cell-based
Set-up: dose 125 nL, time 70.5 hour; concentration not given beside the values
Details: HepG2 cells, read-out: Inhibition

Cc1cc2ncn(C(=O)N3CCCCC3)c2cc1C
cytotoxicity at 70.5 h: -7.84%

COCC(=O)N1C[C@@H](c2cccc(OC)c2)[C@@]2(CCCCC(=O)N2)C1
cytotoxicity at 70.5 h: -10.3%

Oc1cc(C2CCCCN2Cc2ccsc2)nc(-c2ccncc2)n1 (configuration not stated)
cytotoxicity at 70.5 h: -9.16%

CCNC(=O)Nc1ncc(-c2cccnc2)s1
cytotoxicity at 70.5 h: -6.64%

CNC(=O)C1CN(Cc2cc(C)on2)CCN(C2CCOCC2)C1 (configuration not stated)
cytotoxicity at 70.5 h: -7.77%

c1cc(CCNc2ccc(CC3CCNC3)cn2)ccn1 (configuration not stated)
cytotoxicity at 70.5 h: -4.08%

CNC(=O)c1ccc(C2CN(CC(=O)N(C)C)CCO2)nc1 (configuration not stated)
cytotoxicity at 70.5 h: -5.57%

CNC(=O)c1ccc(C2CN(Cc3ccc(F)cc3)CCO2)nc1 (configuration not stated)
cytotoxicity at 70.5 h: -1.99%

CCN1CCC(N2CCC(c3nc(C)cc(C)n3)C2)CC1 (configuration not stated)
cytotoxicity at 70.5 h: -2.1%

O=C(O)c1ccccc1-n1cnc(CN2CCCc3ccccc32)c1
cytotoxicity at 70.5 h: -2.75%

c1cc2cc[nH]c2c(CC2CN(Cc3cscn3)C2)n1
cytotoxicity at 70.5 h: -3.59%

COCC(=O)NC(CC(C)C)c1nc2cccnc2n1C (configuration not stated)
cytotoxicity at 70.5 h: 20.7%

Cc1cc2nccc(C3CCCN(C(=O)c4ccccc4F)C3)n2n1 (configuration not stated)
cytotoxicity at 70.5 h: -1.93%

O=C(Cc1ccc(F)c(F)c1)NC1COc2ccccc2C1=O (configuration not stated)
cytotoxicity at 70.5 h: -0.695%

CC(O)CN1CCN(Cc2cccc(C#N)c2)CC1 (configuration not stated)
cytotoxicity at 70.5 h: -4.63%

Cc1nn(C)c(C)c1NC(=O)CNC(c1ccccc1)C1CCC1 (configuration not stated)
cytotoxicity at 70.5 h: -4.47%

Cc1cnn(CCNCc2nccn2Cc2ccccc2)c1
cytotoxicity at 70.5 h: 1.16%

COC(=O)CC(NC(=O)c1cccc(N2CCCC2=O)c1)C(=O)OC (configuration not stated)
cytotoxicity at 70.5 h: 0.259%

COCCNc1nc(-c2ccc(S(=O)(=O)N3CCCCC3)cc2)cs1
cytotoxicity at 70.5 h: 0.097%

Cn1cnnc1S(=O)(=O)Cc1cc(Cl)c2c(c1)OCCO2
cytotoxicity at 70.5 h: -1.41%

COC(=O)CC(NC(=O)c1cccc(CS(C)(=O)=O)c1)c1cccs1 (configuration not stated)
cytotoxicity at 70.5 h: -4.71%

Cc1ccc(-c2nc(CC(=O)N3CCCC(NC(=O)C(C)C)C3)cs2)o1 (configuration not stated)
cytotoxicity at 70.5 h: -4.05%

Cc1ccc(-c2nc(CC(=O)NCC(C)N3CCOCC3)cs2)o1 (configuration not stated)
cytotoxicity at 70.5 h: -3.4%

Cn1ccnc1Sc1ncc(C(=O)N2CCCCC2)cc1Cl
cytotoxicity at 70.5 h: -4.57%

CCNC(=O)c1cnc(Sc2nccn2C)c(Cl)c1
cytotoxicity at 70.5 h: -2.03%

O=C(c1cn(-c2ccc(C(F)(F)F)cn2)nn1)N1CCCCCC1
cytotoxicity at 70.5 h: -3.98%

CC1CCN(C(=O)c2cn(-c3ccc(C(F)(F)F)cn3)nn2)CC1
cytotoxicity at 70.5 h: -0.268%

CCc1ccc2c(c1)C(CCNC(=O)CSC(F)(F)F)C(=O)N2 (configuration not stated)
cytotoxicity at 70.5 h: -1.42%

Cc1ccccc1CNc1ccc(S(N)(=O)=O)c(C(F)(F)F)c1
cytotoxicity at 70.5 h: 4.82%

Cc1ccc(C(=O)N2CCCC(N(C)C(=O)OC(C)(C)C)C2)o1 (configuration not stated)
cytotoxicity at 70.5 h: 2.04%

CC(c1ccccc1F)N(C(=O)CSCC(N)=O)C1CC1 (configuration not stated)
cytotoxicity at 70.5 h: 5.29%

Cc1cc(NC(=O)c2ccc(N3CCOCC3)cc2)[nH]n1
cytotoxicity at 70.5 h: -1.56%

Cc1nc(CNC(=O)CCCc2cccs2)no1
cytotoxicity at 70.5 h: -5.14%

CC(=O)Nc1cc(F)c(S(=O)(=O)N(C)CC2CCC2)c(F)c1
cytotoxicity at 70.5 h: -0.0857%

CCOc1cccc(CNC(=O)C(C)(C)C#N)c1OC(F)F
cytotoxicity at 70.5 h: -2.64%

CN(C(=O)OC(C)(C)C)C1CCN(C(=O)c2ccc(Cl)o2)C1 (configuration not stated)
cytotoxicity at 70.5 h: -3.64%

C=C(C)CN(CC)S(=O)(=O)c1c(F)cc(NC(C)=O)cc1F
cytotoxicity at 70.5 h: -3.3%

COCCNc1nc(-c2ccc(S(=O)(=O)N3CCCCCC3)cc2)cs1
cytotoxicity at 70.5 h: -5.83%

CC(C)N1CCCC(CNC(=O)Cc2csc(-c3cccnc3)n2)C1 (configuration not stated)
cytotoxicity at 70.5 h: -0.239%

CC(C#N)CN(C)Cc1c(Cl)ccc2cccnc12 (configuration not stated)
cytotoxicity at 70.5 h: 23%

Cc1nc(-c2cccs2)ccc1C(=O)N1CCN(CC(C)O)CC1 (configuration not stated)
cytotoxicity at 70.5 h: -2.84%

CCn1cc(NC(=O)N2CCN(CCSc3ccccc3)CC2)cn1
cytotoxicity at 70.5 h: -7.68%

O=C(CSc1nnc(N2CCCC2)s1)NC(=O)Nc1ccccc1
cytotoxicity at 70.5 h: -5.54%

Cc1nnc2n1CCN(C(=O)c1ccc(Cn3cccc3)cc1)C2
cytotoxicity at 70.5 h: -7.82%

Cc1ccc(NC(=O)N2CCC(CO)(Nc3ccccc3)CC2)cc1
cytotoxicity at 70.5 h: 17.1%

Cc1cccc(NC(=O)N2CCC(CO)(Nc3ccccc3)CC2)c1
cytotoxicity at 70.5 h: -5.03%

O=C1NCCN1C1CCN(CC(O)c2ccccc2F)CC1 (configuration not stated)
cytotoxicity at 70.5 h: -7.23%

Cc1ncccc1C(=O)Nc1cccc(C[S+](C)[O-])c1C (configuration not stated)
cytotoxicity at 70.5 h: 0.697%

Cc1cc(C)c2ncc(C#N)c(NC3CCN(CC(N)=O)CC3)c2c1
cytotoxicity at 70.5 h: 1.44%

CC(NC(=O)N1CCS(=O)(=O)CC1)c1c(F)cccc1Cl (configuration not stated)
cytotoxicity at 70.5 h: -4.16%

O=C(Cc1c[nH]c2ncccc12)NCC(O)c1ccccc1F (configuration not stated)
cytotoxicity at 70.5 h: 15.1%

CC(C)(CO)N1CCN(S(=O)(=O)CCCF)CC1
cytotoxicity at 70.5 h: -8.05%

CN(CCOc1cccc(F)c1)CC(=O)Nc1ccncc1
cytotoxicity at 70.5 h: -10.9%

CN(Cc1nnc(C2CC2)o1)Cc1ccccc1-c1ccccc1
cytotoxicity at 70.5 h: -9.25%

CN1CCN(C2CCN(CC(O)c3ccccc3)CC2)C1=O (configuration not stated)
cytotoxicity at 70.5 h: 4.73%

Cc1cc(CN2CCCN(c3ccc(C#N)cc3)CC2)no1
cytotoxicity at 70.5 h: -7.74%

Cc1ccc(S(=O)(=O)N[C@H](CO)C(C)C)cc1N(C)C
cytotoxicity at 70.5 h: -4.66%

Cc1nccn1-c1ccc(NS(=O)(=O)c2cnn(C(C)C)c2)cn1
cytotoxicity at 70.5 h: -2.54%

N#Cc1ncn(Cc2c(F)cccc2Cl)n1
cytotoxicity at 70.5 h: -5.34%

CNc1nnc(SCc2nnc(C(C)(C)C)o2)s1
cytotoxicity at 70.5 h: 15.4%

CCNc1nnc(SCc2nnc(C(C)(C)C)o2)s1
cytotoxicity at 70.5 h: -8.88%

O=C(CS(=O)(=O)Cc1csc(-c2ccc(F)cc2)n1)NCC1CC1
cytotoxicity at 70.5 h: -6.8%

O=C(Nc1cccnc1N1CCSCC1)c1ccc2c(c1)OCO2
cytotoxicity at 70.5 h: -4.23%

NC(=O)CS(=O)(=O)Cc1csc(-c2ccc(F)cc2)n1
cytotoxicity at 70.5 h: 13.6%

CS(=O)(=O)c1cc(C(=O)NS(=O)(=O)Cc2ccc(F)cc2)ccc1Cl
cytotoxicity at 70.5 h: -3.9%

CC(C)C(=O)Nc1cccc(OCC(=O)NCc2ccccc2F)c1
cytotoxicity at 70.5 h: -5.29%

OCCOc1cc(F)ccc1NCc1ccc(F)c(F)c1
cytotoxicity at 70.5 h: -2.79%

Cc1nnc2n1CCN(C(=O)C1CCN(Cc3ccccc3)CC1)C2
cytotoxicity at 70.5 h: 14.2%

CN(CC(N)=O)Cc1csc(-c2ccc(F)cc2)n1
cytotoxicity at 70.5 h: -0.0734%

Cc1nccn1-c1ccc(NS(=O)(=O)c2cnn(C)c2)cn1
cytotoxicity at 70.5 h: -4.84%

CNC(=O)CN(C)C1CCN(c2ccc(Cl)cc2)CC1
cytotoxicity at 70.5 h: 2.05%

O=C(NS(=O)(=O)c1ccc(F)c(F)c1)c1cscn1
cytotoxicity at 70.5 h: 17.8%

CC(C)CCc1noc(CN2CCCC(CNS(N)(=O)=O)C2)n1 (configuration not stated)
cytotoxicity at 70.5 h: -1.48%

CC(C)Cc1noc(CN2CCCC(CNS(N)(=O)=O)C2)n1 (configuration not stated)
cytotoxicity at 70.5 h: -3.24%

CCc1nc(CN2CCCN(C(=O)Cc3cccs3)CC2)cs1
cytotoxicity at 70.5 h: -6.45%

CCOc1ccc(CNC2CCCN(c3cccnn3)C2)cc1OC (configuration not stated)
cytotoxicity at 70.5 h: 4.96%

CCCNC(=O)CN(C)C1CCN(c2ccc(Cl)cc2)CC1
cytotoxicity at 70.5 h: -6.78%

COc1cc2c(nn1)CCN(Cc1noc(CC(C)C)n1)C2
cytotoxicity at 70.5 h: -4.19%

CC(C)Oc1cccc(CN(C)C(=O)Nc2cccn(C)c2=O)c1
cytotoxicity at 70.5 h: 2.82%

O=C(CCC1CCCO1)NCCN1CCCCC1 (configuration not stated)
cytotoxicity at 70.5 h: -3.64%

COCCNC(=O)N1CCOCC1c1c(C)nn(C)c1C (configuration not stated)
cytotoxicity at 70.5 h: -1.43%

O=S(=O)(Cc1nc(C2CC2)no1)c1cc(F)ccc1F
cytotoxicity at 70.5 h: -12.2%

O=C(NCc1ccc(N2CCSCC2)cc1)NCc1cc[nH]n1
cytotoxicity at 70.5 h: -10.4%

O=C(Nc1cccc(F)c1)NC1CCN(Cc2ccncc2)CC1
cytotoxicity at 70.5 h: -15.3%

CN(C)c1ccc(C(=O)Nc2cnn(Cc3ccccn3)c2)cc1
cytotoxicity at 70.5 h: -9.41%

CC(Oc1cccc(Cl)c1)C(=O)Nc1cnn(CCN(C)C)c1 (configuration not stated)
cytotoxicity at 70.5 h: 23.7%

CN(C)c1cccc(C(=O)Nc2cnn(CC(N)=O)c2)c1
cytotoxicity at 70.5 h: -16.4%

Cc1ccc(-c2nc(C(=O)N(C)CC(=O)N3CCCC3)cs2)c(C)c1
cytotoxicity at 70.5 h: -4.38%

CN(C)c1cccc(C(=O)Nc2cnn(Cc3ccccn3)c2)c1
cytotoxicity at 70.5 h: -9.4%

CCCN(CCC)C(=O)CN1CCCC1C(=O)N(C)C (configuration not stated)
cytotoxicity at 70.5 h: -5.85%

CC(=O)NCc1ccc(C(=O)N2CCCc3c(F)ccc(C)c32)cc1
cytotoxicity at 70.5 h: -8.8%

CN(c1ncc(S(N)(=O)=O)s1)C1CCC1
cytotoxicity at 70.5 h: -9.06%

CCS(=O)(=O)NCC(=O)N(C1CC1)C1Cc2ccccc2C1
cytotoxicity at 70.5 h: -9.21%

Cc1nn(C)c(C)c1C1COCCN1C(=O)CC(C)(C)C (configuration not stated)
cytotoxicity at 70.5 h: 24.2%

Cc1noc(CN(C)c2ccccc2)n1
cytotoxicity at 70.5 h: -13.6%

COc1cccc(-c2nc(CNCCc3cccnc3)cs2)c1
cytotoxicity at 70.5 h: -19.3%

CCN1CC(CN(C)c2cc(C)nc(N)n2)Oc2ccccc21 (configuration not stated)
cytotoxicity at 70.5 h: 17.6%

CC(=O)c1cccc(OC(C)C(=O)Nc2cnn(CCN(C)C)c2)c1 (configuration not stated)
cytotoxicity at 70.5 h: -12.3%

CCSc1cc(C(=O)N(Cc2cnn(C)c2)C(C)C)ccn1
cytotoxicity at 70.5 h: -11.4%

CCC(CNC(=O)COC)Oc1cccc(F)c1 (configuration not stated)
cytotoxicity at 70.5 h: 14.9%

COc1ccc(C)cc1C(C)NS(=O)(=O)c1ccc2c(c1)CCC(=O)N2 (configuration not stated)
cytotoxicity at 70.5 h: 8.83%

CCN(CC1CCOC1)C(=O)Cn1nnn(-c2cccs2)c1=O (configuration not stated)
cytotoxicity at 70.5 h: -15.9%

O=C(Cn1nnn(-c2cccs2)c1=O)NCC1CCOC1 (configuration not stated)
cytotoxicity at 70.5 h: 11.8%

Cc1cc(C)c(CNC(=O)NCCNc2ncccn2)c(=O)[nH]1
cytotoxicity at 70.5 h: -12.7%

CC(CC(=O)N1CCN(c2cnccn2)CC1)c1ccc(F)cc1 (configuration not stated)
cytotoxicity at 70.5 h: 0.499%

Cc1nc2c(C#N)cnn2c(C)c1CCC(=O)N(C)C(C)C(C)C (configuration not stated)
cytotoxicity at 70.5 h: -11.8%

Cc1cc(C)c(CNC(=O)NCCNc2cnccn2)c(=O)[nH]1
cytotoxicity at 70.5 h: -4.64%

CCC(C#N)NC(=O)CCCOc1cccc(C(C)=O)c1 (configuration not stated)
cytotoxicity at 70.5 h: -11.3%

O=C(NCc1nc(C2CC2)no1)N1CCOC(c2ccccc2F)C1 (configuration not stated)
cytotoxicity at 70.5 h: -3.4%

CCN(C)S(=O)(=O)c1ccc(Cl)cc1C#N
cytotoxicity at 70.5 h: -7.9%

CCc1csc(C2CCCN(C(=O)c3ccc(=O)n(C)n3)C2)n1 (configuration not stated)
cytotoxicity at 70.5 h: -11.3%

CC(C)c1csc(C2CCCN(C(=O)c3ccc[nH]3)C2)n1 (configuration not stated)
cytotoxicity at 70.5 h: -4.24%

Cn1cccc(NC(=O)NCCOCc2ccccc2)c1=O
cytotoxicity at 70.5 h: -13.2%

CCS(=O)(=O)N1CCc2c(cccc2NCc2ncc[nH]2)C1
cytotoxicity at 70.5 h: -10%

CC(C)SCc1cccc(NC(=O)NC(C)c2nc[nH]n2)c1 (configuration not stated)
cytotoxicity at 70.5 h: -7.97%

O=C(NCc1nc(C2CC2)no1)N1CCOC(c2cccc(F)c2)C1 (configuration not stated)
cytotoxicity at 70.5 h: 0.958%

CC(C)c1csc(C2CCCN(C(=O)c3ccc(=O)n(C)c3)C2)n1 (configuration not stated)
cytotoxicity at 70.5 h: -0.564%
